The record followed here is patent publication US4575560A, “Insecticidal diaminoguanidine hydrazone compounds” (American Cyanamid Company, priority 1985, dated 1986).

In one data set the test system is Southern Armyworm. As to the kind of experiment: Southern armyworm test, third-instar larvae on treated Sieva lima bean leaves. It is filed as in vivo, Spodoptera eridania (Cramer). The method in brief: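 Sieva lima bean plants, primary leaves expanded to 1.91 cm, were dipped with agitation for three seconds in test material dissolved in 65% acetone, with further dilutions in acetone, then air-dried in a hood. A treated leaf was placed in a 9 cm petri dish on moist filter paper with 10 third-instar Spodoptera eridania larvae about 1 cm long. Dishes were covered and kept at 80° F. and 50% r.h. Mortality and feeding were assessed after two days.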

Data set [1] concerns Tobacco Budworm 3rd Instar. As to the kind of experiment: Tobacco budworm secondary test, third-instar larvae on treated cotton cotyledons. Type of data set: in vivo, Heliothis virescens (Fabricus).
Protocol: Three cotton plants with just expanded cotyledons are dipped in 1000 ppm solution and placed in the hood to dry. When dry, each cotyledon is cut in half, and 10 are each placed in a 28 g plastic medicine cup containing a 1.25 cm dental wick saturated with water, and one third-instar budworm larva is added. The cup is capped and held for three days at 80° F., 50% relative humidity, after which mortality counts are made.
A further data set has as its system Tobacco Budworm. Kind of data set: Tobacco budworm LC50 and FD50 (instar not stated). Type of data set: in vivo, Heliothis virescens (Fabricus). The text has this:
(§1) Test formulations and procedures used for evaluation are as follows:
FD50 = The concentration of insecticide required to reduce insect

For data set [2], the system named is Tobacco Budworm 1st Instar. As to the kind of experiment: Tobacco budworm initial test, treated eggs / newly hatched (1st instar) larvae on treated cotton leaves. Type of data set: in vivo, Heliothis virescens (Fabricus). The protocol:
as §1
A. 100 mg of the test material is weighed, placed in a funnel over a 113 g narrow-mouth bottle, rinsed into the bottle with a 35 mL scoop of acetone, followed by a 35 mL scoop of water and another 35 mL scoop of acetone to yield 1000 ppm in 65% acetone. If the material is not soluble, it is broken up with a glass rod and used as a suspension.
B. This stock solution ("A") is used to make 300 ppm solutions or suspensions by pipetting 30 mL of "A" into a bottle containing 70 mL of 50% acetone to yield 300 ppm. Further dilutions in 50% acetone are made as required.
C. Tests requiring 10 ppm acetone solutions: 1 mL of "A" is pipetted into 99 mL of acetone to yield 10 ppm. Additional dilutions are made using 50% acetone as required.
Tobacco Budworm--Heliothis virescens (Fabricus)
A cotton plant with two true leaves expanded is dipped for three seconds with agitation in 300 ppm solution. A 1.27 to 1.91 cm square of cheesecloth with about 50 to 100 budworm eggs 0-24 hours old is also dipped in the test solution and placed on a leaf of the cotton plant, all being placed in the hood to dry. The leaf with the treated budworm eggs is removed from the plant and placed in a 226 g Dixie cup with a wet 5 cm piece of dental wick and covered with a lid. The other leaf is placed in a similar cup with a wick and a piece of cheesecloth infested with 50-100 newly hatched larvae is added before covering the cup with a lid. After three days at 80° F., 50% relative humidity, observations of egg hatch are made, as well as kill of newly hatched larvae, any inhibition of feeding, or interference of any sort with normal development.

Where [3] appears, read: Spodoptera eridania; read-out: LC50 Southern Armyworm.
Where [4] appears, read: Heliothis virescens; read-out: LC50 Tobacco Budworm.
Setting [5] is: Heliothis virescens, read-out: LC50 Tobacco Budworm.

Each structure is given as a SMILES string. ≈ marks a conversion by molar mass, not a printed value. Like-named read-outs stand apart in the source and are kept apart here.

For the molecule `N=C(NN=Cc1ccc(C(F)(F)F)cc1)N(N=Cc1ccc(C(F)(F)F)cc1)C(=O)N1CCCC1` [CF3 / CF3 / (CH2)4], the “Mortality Rating Southern Armyworm” value in the data set with Southern Armyworm (10 ppm, third-instar larvae) is 9 (100%); in the data set on Southern Armyworm (100 ppm, third-instar larvae), 9 (100%); in the data set on Southern Armyworm (1000 ppm, third-instar larvae) it was 9 (100%). Also, the LC50 was 18 µg/mL (≈ 36.1 µM) with Southern Armyworm (setting [3]) and 1000 µg/mL (≈ 2010 µM) in the data set on Tobacco Budworm (setting [4]). Also, the “LC50 Southern Armyworm” value in the data set on Southern Armyworm (southern armyworm, in vivo) worked out at 14 ppm. Also, the results for the “Mortality Rating Tobacco Budworm 3rd Instar” value in data set [1] (10 ppm), in data set [1] (100 ppm) and in data set [1] (1000 ppm) were 0 (No effect), 4 (46-55%) and 9 (100%), respectively.

Regarding `CN(C)C(=O)N(N=Cc1ccc(C(F)(F)F)cc1)C(=N)NN=Cc1ccc(C(F)(F)F)cc1` [CF3 / CF3 / CH3 / CH3], the “Mortality Rating Southern Armyworm” value is on record as 8 (86-99%) in the data set on Southern Armyworm (10 ppm, third-instar larvae); 9 (100%) in the data set on Southern Armyworm (100 ppm, third-instar larvae); 9 (100%) in the data set with Southern Armyworm (1000 ppm, third-instar larvae). Besides, the LC50 with Southern Armyworm (setting [3]) was 15 µg/mL (≈ 31.8 µM); in the data set with Tobacco Budworm (setting [4]) it was 96 µg/mL (≈ 203 µM). For the same molecule, the “Mortality Rating Tobacco Budworm 1st Instar” value in data set [2] (10 ppm) is recorded as 0 (No effect); in data set [2] (100 ppm), 6 (66-75%); in data set [2] (300 ppm), 8 (86-99%). The “Mortality Rating Tobacco Budworm 3rd Instar” value in data set [1] (10 ppm) is 0 (No effect); in data set [1] (100 ppm) it was 9 (100%); in data set [1] (1000 ppm) it was 9 (100%).

Consider `N=C(NN=Cc1ccc(C(F)(F)F)cc1)N(N=Cc1ccc(C(F)(F)F)cc1)C(=O)NCCCl` [CF3 / CF3 / ClCH2 CH2 / H, allophanimidic acid, 4-(2-chloroethyl)-2-{[p-(trifluoromethyl)benzylidene]amino}-allophanimidicacid [p-(trifluoromethyl)benzylidene]hydrazide], for which the “Mortality Rating Southern Armyworm” value in the data set with Southern Armyworm (100 ppm, third-instar larvae) is on record as 9 (100%); in the data set with Southern Armyworm (1000 ppm, third-instar larvae) it was 9 (100%). Also, the “Mortality Rating Tobacco Budworm 1st Instar” value in data set [2] (300 ppm) was 0 (No effect). The “Mortality Rating Tobacco Budworm 3rd Instar” value in data set [1] (100 ppm) is on record as 4 (46-55%); in data set [1] (1000 ppm) it was 9 (100%). In addition, the LC50 with Tobacco Budworm (setting [5]) worked out at 654 µg/mL (≈ 1290 µM).

In the case of `CN(C)C(=O)N(N=Cc1ccc(OC(F)(F)F)cc1)C(=N)NN=Cc1ccc(OC(F)(F)F)cc1` [CF3 O / CF3 O / CH3 / CH3], the “Mortality Rating Southern Armyworm” value with Southern Armyworm (10 ppm, third-instar larvae) is on record as 9 (100%); with Southern Armyworm (100 ppm, third-instar larvae) it was 9 (100%); in the data set on Southern Armyworm (1000 ppm, third-instar larvae), 9 (100%). Further, the entries for the “Mortality Rating Tobacco Budworm 3rd Instar” value in data set [1] (100 ppm) and in data set [1] (1000 ppm) were 3 (36-45%) and 9 (100%), respectively. Also, the LC50 in the data set on Tobacco Budworm (setting [4]) is 77 µg/mL (≈ 153 µM).

Turning to `N=C(NN=Cc1ccc(F)cc1)NN=Cc1ccc(F)cc1` [F / B], the “Mortality Rating Southern Armyworm” value with Southern Armyworm (100 ppm, third-instar larvae) is 2 (26-35%); in the data set with Southern Armyworm (1000 ppm, third-instar larvae), 9 (100%). Moreover, the “Mortality Rating Tobacco Budworm 1st Instar” value in data set [2] (100 ppm) and in data set [2] (300 ppm) was 0 (No effect) each time. Besides, the “Mortality Rating Tobacco Budworm 3rd Instar” value in data set [1] (1000 ppm) is listed as 3 (36-45%).

Take `CN(C)C(=O)N(N=Cc1ccc(OC(F)(F)C(Cl)Cl)cc1)C(=N)NN=Cc1ccc(OC(F)(F)C(Cl)Cl)cc1` [HCCl2 CF2 O / HCCl2 CF2 O / CH3 / CH3]: the “Mortality Rating Southern Armyworm” value is 9 (100%) with Southern Armyworm (100 ppm, third-instar larvae) and 9 (100%) in the data set with Southern Armyworm (1000 ppm, third-instar larvae). Besides, the LC50 in the data set with Southern Armyworm (setting [3]) was 26 µg/mL (≈ 41 µM); in the data set on Tobacco Budworm (setting [4]), 140 µg/mL (≈ 221 µM). The “Mortality Rating Tobacco Budworm 3rd Instar” value in data set [1] (100 ppm) was 2 (26-35%); in data set [1] (1000 ppm), 0 (No effect).

Regarding `N=C(NN=Cc1ccc(OC(F)(F)C(F)F)cc1)NN=Cc1ccc(OC(F)(F)C(F)F)cc1` [HCF2 CF2 O / B, 1,3-bis{[p-(tetrafluoroethoxy)benzylidene]-amino}guanidine], the “Mortality Rating Southern Armyworm” value in the data set on Southern Armyworm (10 ppm, third-instar larvae) is 0 (No effect); in the data set with Southern Armyworm (100 ppm, third-instar larvae) it was 9 (100%); in the data set with Southern Armyworm (1000 ppm, third-instar larvae), 9 (100%). For the same molecule, the “Mortality Rating Tobacco Budworm 1st Instar” value in data set [2] (100 ppm) is listed as 0 (No effect); in data set [2] (300 ppm), 9 (100%). Further, the “reduced feeding (R) Tobacco Budworm 1st Instar” value in data set [2] (100 ppm) was “R”. For the same molecule, the “Mortality Rating Tobacco Budworm 3rd Instar” value is 0 (No effect) in data set [1] (100 ppm) and 9 (100%) in data set [1] (1000 ppm).

With `CN(C)C(=O)N(N=Cc1ccc(OC(F)(F)C(F)F)cc1)C(=N)NN=Cc1ccc(OC(F)(F)C(F)F)cc1` [HCF2 CF2 O / HCF2 CF2 O / CH3 / CH3, 4,4-dimethyl-2-{[p-(1,1,2,2-tetrafluoroethoxy)benzylidene]amino}-allophanimidic acid [p-(1,1,2,2-tetrafluoroethoxy)benzylidene]hydrazide], the “Mortality Rating Southern Armyworm” value is listed as 0 (No effect) with Southern Armyworm (10 ppm, third-instar larvae); 9 (100%) in the data set on Southern Armyworm (100 ppm, third-instar larvae); 9 (100%) with Southern Armyworm (1000 ppm, third-instar larvae). The LC50 in the data set with Southern Armyworm (Spodoptera eridania, read-out: LC50 Southern Armyworm) was 7 µg/mL (≈ 12.3 µM); in the data set on Tobacco Budworm (setting [5]), 491 µg/mL (≈ 864 µM). Further, the figures for the “Mortality Rating Tobacco Budworm 1st Instar” value in data set [2] (100 ppm) and in data set [2] (300 ppm) were 5 (56-65%) and 9 (100%), respectively. The “Mortality Rating Tobacco Budworm 3rd Instar” value in data set [1] (100 ppm) is 2 (26-35%); in data set [1] (1000 ppm), 8 (86-99%).

For `N=C(NN=Cc1ccc(OC(F)F)cc1)NN=Cc1ccc(OC(F)F)cc1` [HCF2 O / B], the “Mortality Rating Southern Armyworm” value in the data set on Southern Armyworm (10 ppm, third-instar larvae) is reported as 0 (No effect); with Southern Armyworm (100 ppm, third-instar larvae), 6 (66-75%); with Southern Armyworm (1000 ppm, third-instar larvae) it was 9 (100%). Also, in data set [2] (300 ppm), the “Mortality Rating Tobacco Budworm 1st Instar” value is listed as 0 (No effect). Besides, the “Mortality Rating Tobacco Budworm 3rd Instar” value in data set [1] (1000 ppm) is 0 (No effect).

For `CN(C)C(=O)N(N=Cc1ccc(OC(F)F)cc1)C(=N)NN=Cc1ccc(OC(F)F)cc1` [HCF2 O / HCF2 O / CH3 / CH3], the “Mortality Rating Southern Armyworm” value in the data set with Southern Armyworm (10 ppm, third-instar larvae) is recorded as 0 (No effect); with Southern Armyworm (100 ppm, third-instar larvae) it was 9 (100%); in the data set on Southern Armyworm (1000 ppm, third-instar larvae), 9 (100%). Moreover, the LC50 with Southern Armyworm (setting [3]) stood at 75 µg/mL (≈ 160 µM). For the same molecule, the “Mortality Rating Tobacco Budworm 1st Instar” value in data set [2] (300 ppm) was 0 (No effect). Further, the “Mortality Rating Tobacco Budworm 3rd Instar” value in data set [1] (1000 ppm) is 0 (No effect).

As for `CNC(=O)N(N=Cc1ccc(OC(F)F)cc1)C(=N)NN=Cc1ccc(OC(F)F)cc1` [HCF2 O / HCF2 O / CH3 / H], the “Mortality Rating Southern Armyworm” value with Southern Armyworm (100 ppm, third-instar larvae) is given as 0 (No effect); with Southern Armyworm (1000 ppm, third-instar larvae), 9 (100%). Besides, the “Mortality Rating Tobacco Budworm 1st Instar” value in data set [2] (300 ppm) is 7 (76-85%). For the same molecule, in data set [1] (1000 ppm), the “Mortality Rating Tobacco Budworm 3rd Instar” value was 0 (No effect).

Take `N=C(NN=Cc1ccc(OC(F)F)cc1)NN=Cc1ccc(OC(F)F)cc1` [HCF2 O / S]: the “Mortality Rating Southern Armyworm” value is on record as 0 (No effect) in the data set on Southern Armyworm (10 ppm, third-instar larvae); 8 (86-99%) with Southern Armyworm (100 ppm, third-instar larvae); 9 (100%) in the data set on Southern Armyworm (1000 ppm, third-instar larvae). For the same molecule, the “Mortality Rating Tobacco Budworm 1st Instar” value in data set [2] (300 ppm) is reported as 0 (No effect). The “Mortality Rating Tobacco Budworm 3rd Instar” value in data set [1] (1000 ppm) is 0 (No effect).

Consider `CN(C)C(=O)N(N=Cc1ccc(OC(F)(F)C(F)Cl)cc1)C(=N)NN=Cc1ccc(OC(F)(F)C(F)Cl)cc1` (stereo not drawn) [drawing 40 / drawing 41 / CH3 / CH3], for which the “Mortality Rating Southern Armyworm” value in the data set with Southern Armyworm (10 ppm, third-instar larvae) was 9 (100%); in the data set on Southern Armyworm (100 ppm, third-instar larvae), 9 (100%); in the data set with Southern Armyworm (1000 ppm, third-instar larvae), 9 (100%). Further, the “Mortality Rating Tobacco Budworm 3rd Instar” value is 0 (No effect) in data set [1] (10 ppm), 4 (46-55%) in data set [1] (100 ppm) and 9 (100%) in data set [1] (1000 ppm). The LC50 with Tobacco Budworm (setting [4]) turned out to be 201 µg/mL (≈ 334 µM).
